Source: the supplement of paper PMC10307832

Columns and labels:
Experiment in all cases: relative viability (nuclei count vs DMSO), 5 days (fraction); higher = more cells survive
Crizotinib + AZD7762 = compound: C[C@@H](Oc1cc(-c2cnn(C3CCNCC3)c2)cnc1N)c1c(Cl)ccc(F)c1Cl [Crizotinib] + NC(=O)Nc1cc(-c2cccc(F)c2)sc1C(=O)N[C@H]1CCCNC1 [AZD7762] (partner 0.2 µM)
Procedure, shortened: (§1)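 Each reported value is a median over duplicate plates. It expresses relative viability: treated-well nuclei count divided by vehicle-well nuclei count. Lung cancer cell lines in 1536-well plates were dosed by pin tool a day after seeding, alone with one drug or with a fixed anchor-drug dose plus five library-drug doses (not always all listed) in √10 steps, and nuclei were counted after 5 days.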

Olaparib + Crizotinib = compound: O=C(c1cc(Cc2n[nH]c(=O)c3ccccc23)ccc1F)N1CCN(C(=O)C2CC2)CC1 [Olaparib] + C[C@@H](Oc1cc(-c2cnn(C3CCNCC3)c2)cnc1N)c1c(Cl)ccc(F)c1Cl [Crizotinib] (partner 1 µM)
Procedure, shortened: as §1

Olaparib + Linsitinib = compound: O=C(c1cc(Cc2n[nH]c(=O)c3ccccc23)ccc1F)N1CCN(C(=O)C2CC2)CC1 [Olaparib] + C[C@]1(O)C[C@@H](c2nc(-c3ccc4ccc(-c5ccccc5)nc4c3)c3c(N)nccn32)C1 [Linsitinib] (partner 1 µM)
Procedure, shortened: as §1

Carfilzomib + Crizotinib = compound: CC(C)C[C@H](NC(=O)[C@H](CCc1ccccc1)NC(=O)CN1CCOCC1)C(=O)N[C@@H](Cc1ccccc1)C(=O)N[C@@H](CC(C)C)C(=O)[C@@]1(C)CO1 [Carfilzomib] + C[C@@H](Oc1cc(-c2cnn(C3CCNCC3)c2)cnc1N)c1c(Cl)ccc(F)c1Cl [Crizotinib] (partner 1 µM)
Procedure, shortened: as §1

Cell Line | relative viability (Crizotinib + AZD7762; first compound 0.01 µM) | relative viability (Crizotinib + AZD7762; first compound 0.03162 µM) | relative viability (Crizotinib + AZD7762; first compound 0.1 µM) | relative viability (Crizotinib + AZD7762; first compound 0.3162 µM) | relative viability (Crizotinib + AZD7762; first compound 1 µM) | relative viability (Olaparib + Crizotinib; first compound 0.08 µM) | relative viability (Olaparib + Crizotinib; first compound 0.253 µM) | relative viability (Olaparib + Crizotinib; first compound 2.53 µM) | relative viability (Olaparib + Crizotinib; first compound 8 µM) | relative viability (Olaparib + Linsitinib; first compound 0.08 µM) | relative viability (Olaparib + Linsitinib; first compound 0.253 µM) | relative viability (Olaparib + Linsitinib; first compound 2.53 µM) | relative viability (Olaparib + Linsitinib; first compound 8 µM) | relative viability (Carfilzomib + Crizotinib; first compound 0.001 µM) | relative viability (Carfilzomib + Crizotinib; first compound 0.003162 µM) | relative viability (Carfilzomib + Crizotinib; first compound 0.01 µM) | relative viability (Carfilzomib + Crizotinib; first compound 0.03162 µM) | relative viability (Carfilzomib + Crizotinib; first compound 0.1 µM)
LCLC-97TM1 | 0.193 | 0.138 | 0.252 | 0.104 | 0.339 | 0.409 | 0.35 | 0.365 | 0.305 | 0.166 | 0.178 | 0.162 | 0.18 | 0.354 | 0.339 | 0.352 | 0.0915 | 0.129
LCLC-103H | 0.798 | 0.78 | 0.877 | 0.839 | 0.804 | 1.15 | 1.04 | 1.04 | 0.985 | 1.13 | 1.07 | 1.04 | 0.873 | 1.03 | 1.01 | 1.07 | 0.888 | 0.204
NCI-H520 | – | – | – | – | – | 0.739 | 0.695 | 0.781 | 0.477 | 1.17 | 0.825 | 0.872 | 0.663 | 0.759 | 0.883 | 0.665 | 0.103 | 0.106
NCI-H522 | 0.852 | 0.792 | 0.752 | 0.908 | 0.846 | – | – | – | – | – | – | – | – | – | – | – | – | –
NCI-H661 | – | – | – | – | – | 1.06 | 0.969 | 0.944 | 0.849 | 0.773 | 0.593 | 0.518 | 0.573 | 0.861 | 0.971 | 1.01 | 0.985 | 0.867
